According to ChEMBL document CHEMBL1140676, “Evaluation of broad spectrum protein kinase inhibitors to probe the architecture of the malarial cyclin dependent protein kinase Pfmrk” (Bioorg Med Chem Lett, 2007):

Experiments:
[1] = target: T1, Protein kinase Pfmrk (Plasmodium falciparum, UniProt P90584); assay: Inhibition of Plasmodium falciparum Pfmrk
T1 sequence (P90584 whole entry): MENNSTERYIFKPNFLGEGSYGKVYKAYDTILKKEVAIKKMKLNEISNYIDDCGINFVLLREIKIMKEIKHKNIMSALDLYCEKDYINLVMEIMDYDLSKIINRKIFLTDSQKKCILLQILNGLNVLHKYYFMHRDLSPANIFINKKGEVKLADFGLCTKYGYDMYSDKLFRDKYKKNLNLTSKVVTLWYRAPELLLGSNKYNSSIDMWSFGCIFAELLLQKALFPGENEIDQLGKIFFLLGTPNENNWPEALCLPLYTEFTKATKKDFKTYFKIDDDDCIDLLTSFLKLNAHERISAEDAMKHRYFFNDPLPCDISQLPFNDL

[2] = test system: Plasmodium falciparum; assay: Antimalarial activity against drug-resistant Plasmodium falciparum W2; format: functional, organism-based
[3] = test system: Plasmodium falciparum; assay: Antimalarial activity against drug-resistant Plasmodium falciparum D6; format: functional, organism-based

| Structure (SMILES) | IC50 [1] [µM] | IC50 [2] [µM] | IC50 [3] [µM] |
| --- | --- | --- | --- |
| O=S(=O)(c1cccc2c(I)cccc12)N1CCCNCC1 | > 500 |  |  |
| N=C(N)NCCNS(=O)(=O)c1cccc2cnccc12 | > 500 |  |  |
| O=S(=O)(c1cccc2cnccc12)N1CCCNCC1 [FASUDIL] | > 500 |  |  |
| O=S(=O)(c1cccc2cnccc12)N1CCNCC1 | > 500 | 4.3 | > 36 |
| CNCCNS(=O)(=O)c1cccc2cnccc12 | 70 | > 37 | > 74 |
| NCCCCNS(=O)(=O)c1cccc2c(Cl)cccc12 | > 500 |  |  |
| O=S(=O)(NCCNC/C=C/c1ccc(Br)cc1)c1cccc2cnccc12 | > 500 | 2.1 | 4.8 |
| NCCCCCCNS(=O)(=O)c1cccc2c(Cl)cccc12 | > 500 | 15 | 8.8 |
| C[C@H]1CNCCN1S(=O)(=O)c1cccc2cnccc12 | > 500 | 5.4 | > 69 |
| NCCCCNS(=O)(=O)c1ccc2ccccc2c1 | > 500 |  |  |
| NCCNS(=O)(=O)c1cccc2cnccc12 | 0.7 | > 72 | > 72 |
| O=S(=O)(c1cccc2c(Cl)cccc12)N1CCCNCC1 | > 500 |  |  |
